Source: patent US20060009478A1, “Methods for the treatment of back pain” (priority 2003, published 2006)

Tested on: patients with moderate to severe chronic low back pain
Test: Opioid-associated adverse events (constipation, nausea, vomiting, dizziness, somnolence, pruritus), low back pain study
[1] = event table, all occurrences, through the treatment period, ITT
[2] = event table, % of total number of events
[3] = through the treatment period, ITT population

COc1ccc2c3c1O[C@H]1C(=O)CC[C@@]4(O)[C@@H](C2)N(C)CC[C@]314 [OXY QID, oxycodone]
Number of events, all opioid-associated adverse events [1]: 2549
Number of events, all opioid-associated adverse events (by severity table) [1]: 2549
Number of events, constipation [1]: 576
Number of events, constipation, mild [1]: 430
Number of events, constipation, moderate [1]: 119
Number of events, constipation, severe [1]: 27
Number of events, dizziness [1]: 390
Number of events, dizziness, mild [1]: 314
Number of events, dizziness, moderate [1]: 63
Number of events, dizziness, severe [1]: 13
Number of events, gastrointestinal disorders [1]: 1143
Number of events, gastrointestinal disorders (by severity table) [1]: 1143
Number of events, nausea [1]: 459
Number of events, nausea, mild [1]: 336
Number of events, nausea, moderate [1]: 93
Number of events, nausea, severe [1]: 30
Number of events, nervous system disorders [1]: 952
Number of events, nervous system disorders (by severity table) [1]: 952
Number of events, pruritus [1]: 454
Number of events, pruritus, moderate [1]: 93
Number of events, pruritus, severe [1]: 13
Number of events, skin and subcutaneous tissue disorders [1]: 454
Number of events, skin and subcutaneous tissue disorders (by severity table) [1]: 454
Number of events, somnolence [1]: 562
Number of events, somnolence, mild [1]: 390
Number of events, somnolence, moderate [1]: 133
Number of events, somnolence, severe [1]: 39
Number of events, vomiting [1]: 108
Number of events, vomiting, mild [1]: 61
Number of events, vomiting, moderate [1]: 26
Number of events, vomiting, severe [1]: 21
% of all events, constipation, mild [2]: 16.9%
% of all events, constipation, moderate [2]: 4.7%
% of all events, constipation, severe [2]: 1.1%
% of all events, dizziness [2]: 15.3%
% of all events, dizziness, mild [2]: 12.3%
% of all events, dizziness, moderate [2]: 2.5%
% of all events, dizziness, severe [2]: 0.5%
% of all events, gastrointestinal disorders [2]: 44.8%
% of all events, gastrointestinal disorders (by severity table) [2]: 44.8%
% of all events, nausea [2]: 18.0%
% of all events, nausea, mild [2]: 13.2%
% of all events, nausea, moderate [2]: 3.6%
% of all events, nausea, severe [2]: 1.2%
% of all events, nervous system disorders [2]: 37.3%
% of all events, nervous system disorders (by severity table) [2]: 37.3%
% of all events, pruritus [2]: 17.8%
% of all events, pruritus, mild [2]: 13.7%
% of all events, pruritus, moderate [2]: 3.6%
% of all events, pruritus, severe [2]: 0.5%
% of all events, skin and subcutaneous tissue disorders [2]: 17.8%
% of all events, skin and subcutaneous tissue disorders (by severity table) [2]: 17.8%
% of all events, somnolence [2]: 22.0%
% of all events, somnolence, mild [2]: 15.3%
% of all events, somnolence, moderate [2]: 5.2%
% of all events, somnolence, severe [2]: 1.5%
% of all events, vomiting [2]: 4.2%
% of all events, vomiting, mild [2]: 2.4%
% of all events, vomiting, moderate [2]: 1.0%
% of all events, vomiting, severe [2]: 0.8%
% of patients reporting constipation [3]: 59.2%
% of patients reporting constipation, maximum severity mild [3]: 26.7%
% of patients reporting constipation, maximum severity moderate [3]: 20.9%
% of patients reporting constipation, maximum severity severe [3]: 11.7%
% of patients reporting dizziness [3]: 51.9%
% of patients reporting dizziness, maximum severity mild [3]: 29.6%
% of patients reporting dizziness, maximum severity moderate [3]: 16.0%
% of patients reporting dizziness, maximum severity severe [3]: 6.3%
% of patients reporting gastrointestinal disorders [3]: 77.7%
% of patients reporting gastrointestinal disorders (by maximum severity table) [3]: 77.7%
% of patients reporting nausea [3]: 58.3%
% of patients reporting nausea, maximum severity moderate [3]: 22.3%
% of patients reporting nausea, maximum severity severe [3]: 11.7%
% of patients reporting nervous system disorders [3]: 79.1%
% of patients reporting nervous system disorders (by maximum severity table) [3]: 79.1%
% of patients reporting pruritus, maximum severity mild [3]: 28.6%
% of patients reporting pruritus, maximum severity moderate [3]: 25.2%
% of patients reporting pruritus, maximum severity severe [3]: 6.3%
% of patients reporting somnolence [3]: 68.0%
% of patients reporting somnolence, maximum severity mild [3]: 23.3%
% of patients reporting somnolence, maximum severity moderate [3]: 29.1%
% of patients reporting somnolence, maximum severity severe [3]: 15.5%
% of patients reporting vomiting, maximum severity mild [3]: 9.7%
% of patients reporting vomiting, maximum severity moderate [3]: 7.8%
% of patients reporting vomiting, maximum severity severe [3]: 6.8%
Number of patients reporting constipation [3]: 122
Number of patients reporting constipation, maximum severity mild [3]: 55
Number of patients reporting constipation, maximum severity moderate [3]: 43
Number of patients reporting constipation, maximum severity severe [3]: 24
Number of patients reporting dizziness [3]: 107
Number of patients reporting dizziness, maximum severity mild [3]: 61
Number of patients reporting dizziness, maximum severity moderate [3]: 33
Number of patients reporting dizziness, maximum severity severe [3]: 13
Number of patients reporting gastrointestinal disorders [3]: 160
Number of patients reporting gastrointestinal disorders (by maximum severity table) [3]: 160
Number of patients reporting nausea [3]: 120
Number of patients reporting nausea, maximum severity mild [3]: 50
Number of patients reporting nausea, maximum severity moderate [3]: 46
Number of patients reporting nausea, maximum severity severe [3]: 24
Number of patients reporting nervous system disorders [3]: 163
Number of patients reporting nervous system disorders (by maximum severity table) [3]: 163
Number of patients reporting pruritus [3]: 124
Number of patients reporting pruritus, maximum severity mild [3]: 59
Number of patients reporting pruritus, maximum severity moderate [3]: 52
Number of patients reporting pruritus, maximum severity severe [3]: 13
Number of patients reporting skin and subcutaneous tissue disorders [3]: 124
Number of patients reporting skin and subcutaneous tissue disorders (by maximum severity table) [3]: 124
Number of patients reporting somnolence [3]: 140
Number of patients reporting somnolence, maximum severity mild [3]: 48
Number of patients reporting somnolence, maximum severity moderate [3]: 60
Number of patients reporting somnolence, maximum severity severe [3]: 32
Number of patients reporting vomiting [3]: 50
Number of patients reporting vomiting, maximum severity mild [3]: 20
Number of patients reporting vomiting, maximum severity moderate [3]: 16
Number of patients reporting vomiting, maximum severity severe [3]: 14
